Experimental data from ChEMBL document CHEMBL3885881, “DrugMatrix”.

Species: Rattus norvegicus
Test: DrugMatrix - Regimen: Daily Repeat
Format: toxicity, organism-based, Sprague-Dawley
Set-up: regimen Daily Repeat, gender Male, age 6-8 weeks
Details: in vivo, po, route oral GAVAGE, vehicle .5 % CMC; for ABSOLUTE BASOPHIL / ABSOLUTE EOSINOPHIL / ABSOLUTE LYMPHOCYTE / ABSOLUTE MONOCYTE / ABSOLUTE SEGMENTED NEUTROPHIL / BASOPHIL / EOSINOPHIL / ERYTHROCYTE COUNT / HEMATOCRIT / HEMOGLOBIN / LEUKOCYTE COUNT / LYMPHOCYTE / MEAN CORPUSCULAR HEMOGLOBIN / MEAN CORPUSCULAR HEMOGLOBIN CONCENTRATION / MEAN CORPUSCULAR VOLUME / MONOCYTE / NEUTROPHIL / NUCLEATED RED BLOOD CELLS / PLATELET COUNT: tissue Blood; for ALANINE AMINOTRANSFERASE / ALBUMIN / ALKALINE PHOSPHATASE / ASPARTATE AMINOTRANSFERASE / BLOOD UREA NITROGEN / CARBON DIOXIDE / CHLORIDE / CHOLESTEROL / CREATINE PHOSPHOKINASE / CREATININE / GLUCOSE / LACTATE DEHYDROGENASE / LIPASE / PHOSPHORUS / POTASSIUM / SODIUM / TOTAL BILIRUBIN / TOTAL PROTEIN / URIC ACID: tissue Plasma
[1] = 10 mg/kg, 72 h, dose level Low, time 3 day
[2] = 10 mg/kg, 120 h, dose level Low, time 5 day
[3] = 310 mg/kg, 72 h, dose level High, time 3 day
[4] = 310 mg/kg, 120 h, dose level High, time 5 day

## O=C1CN=C(c2ccccc2)c2cc([N+](=O)[O-])ccc2N1 [NITRAZEPAM]
[1]
  ABSOLUTE BASOPHIL: 0 CELLS/uL
  ABSOLUTE EOSINOPHIL: 19 CELLS/uL
  ABSOLUTE LYMPHOCYTE: 6878.67 CELLS/uL
  ABSOLUTE MONOCYTE: 19 CELLS/uL
  ABSOLUTE SEGMENTED NEUTROPHIL: 750 CELLS/uL
  BASOPHIL: 0%
  EOSINOPHIL: 0.33%
  ERYTHROCYTE COUNT: 5.13 x10E6/uL
  HEMATOCRIT: 31.73%
  HEMOGLOBIN: 12.93 G/DL
  LEUKOCYTE COUNT: 7.67 x10E3/uL
  LYMPHOCYTE: 90.33%
  MEAN CORPUSCULAR HEMOGLOBIN: 25.23 pg
  MEAN CORPUSCULAR HEMOGLOBIN CONCENTRATION: 40.73 G/DL
  MEAN CORPUSCULAR VOLUME: 61.9 fL
  MONOCYTE: 0.33%
  NEUTROPHIL: 9%
  NUCLEATED RED BLOOD CELLS: 0 /100WBC
  PLATELET COUNT: 847 x10E3/uL
  ALANINE AMINOTRANSFERASE: 48.67 u/L
  ALBUMIN: 4.23 G/DL
  ALKALINE PHOSPHATASE: 424.33 u/L
  ASPARTATE AMINOTRANSFERASE: 76.67 u/L
  BLOOD UREA NITROGEN: 15 mg/dL
  CARBON DIOXIDE: 31 mmol/L
  CHLORIDE: 103 MEQ/L
  CHOLESTEROL: 76.67 mg/dL
  CREATINE PHOSPHOKINASE: 169 u/L
  CREATININE: 0.18 mg/dL
  GLUCOSE: 141.67 mg/dL
  LACTATE DEHYDROGENASE: 124.67 u/L
  LIPASE: 10 u/L
  PHOSPHORUS: 10.73 mg/dL
  POTASSIUM: 5.83 MEQ/L
  SODIUM: 149.6 MEQ/L
  TOTAL BILIRUBIN: 0.2 mg/dL
  TOTAL PROTEIN: 5.43 G/DL
  URIC ACID: 0.9 mg/dL
[2]
  ABSOLUTE BASOPHIL: 0 CELLS/uL
  ABSOLUTE EOSINOPHIL: 0 CELLS/uL
  ABSOLUTE LYMPHOCYTE: 11358.67 CELLS/uL
  ABSOLUTE MONOCYTE: 0 CELLS/uL
  ABSOLUTE SEGMENTED NEUTROPHIL: 1008 CELLS/uL
  BASOPHIL: 0%
  EOSINOPHIL: 0%
  ERYTHROCYTE COUNT: 5.81 x10E6/uL
  HEMATOCRIT: 35.47%
  HEMOGLOBIN: 13.93 G/DL
  LEUKOCYTE COUNT: 12.37 x10E3/uL
  LYMPHOCYTE: 92%
  MEAN CORPUSCULAR HEMOGLOBIN: 24.07 pg
  MEAN CORPUSCULAR HEMOGLOBIN CONCENTRATION: 39.33 G/DL
  MEAN CORPUSCULAR VOLUME: 61.13 fL
  MONOCYTE: 0%
  NEUTROPHIL: 8%
  NUCLEATED RED BLOOD CELLS: 0 /100WBC
  PLATELET COUNT: 1206.67 x10E3/uL
  ALANINE AMINOTRANSFERASE: 43.67 u/L
  ALBUMIN: 4.43 G/DL
  ALKALINE PHOSPHATASE: 331.67 u/L
  ASPARTATE AMINOTRANSFERASE: 77.33 u/L
  BLOOD UREA NITROGEN: 18 mg/dL
  CARBON DIOXIDE: 26.67 mmol/L
  CHLORIDE: 102 MEQ/L
  CHOLESTEROL: 67.67 mg/dL
  CREATINE PHOSPHOKINASE: 186.67 u/L
  CREATININE: 0.2 mg/dL
  GLUCOSE: 147.33 mg/dL
  LACTATE DEHYDROGENASE: 109.33 u/L
  LIPASE: 9.33 u/L
  PHOSPHORUS: 13.13 mg/dL
  POTASSIUM: 6.92 MEQ/L
  SODIUM: 147.33 MEQ/L
  TOTAL BILIRUBIN: 0.23 mg/dL
  TOTAL PROTEIN: 6.4 G/DL
  URIC ACID: 2.13 mg/dL
[3]
  ABSOLUTE BASOPHIL: 0 CELLS/uL
  ABSOLUTE EOSINOPHIL: 0 CELLS/uL
  ABSOLUTE LYMPHOCYTE: 11568.33 CELLS/uL
  ABSOLUTE MONOCYTE: 226.67 CELLS/uL
  ABSOLUTE SEGMENTED NEUTROPHIL: 871.67 CELLS/uL
  BASOPHIL: 0%
  EOSINOPHIL: 0%
  ERYTHROCYTE COUNT: 5.41 x10E6/uL
  HEMATOCRIT: 34%
  HEMOGLOBIN: 13.63 G/DL
  LEUKOCYTE COUNT: 12.67 x10E3/uL
  LYMPHOCYTE: 90.67%
  MEAN CORPUSCULAR HEMOGLOBIN: 25.23 pg
  MEAN CORPUSCULAR HEMOGLOBIN CONCENTRATION: 40.1 G/DL
  MEAN CORPUSCULAR VOLUME: 62.87 fL
  MONOCYTE: 1.67%
  NEUTROPHIL: 7.67%
  NUCLEATED RED BLOOD CELLS: 0 /100WBC
  PLATELET COUNT: 1116 x10E3/uL
  ALANINE AMINOTRANSFERASE: 48 u/L
  ALBUMIN: 4.03 G/DL
  ALKALINE PHOSPHATASE: 270 u/L
  ASPARTATE AMINOTRANSFERASE: 93.33 u/L
  BLOOD UREA NITROGEN: 15.67 mg/dL
  CARBON DIOXIDE: 27.67 mmol/L
  CHLORIDE: 100 MEQ/L
  CHOLESTEROL: 88.67 mg/dL
  CREATINE PHOSPHOKINASE: 222.67 u/L
  CREATININE: 0.17 mg/dL
  GLUCOSE: 150.33 mg/dL
  LACTATE DEHYDROGENASE: 150.67 u/L
  LIPASE: 8 u/L
  PHOSPHORUS: 11.93 mg/dL
  POTASSIUM: 6.17 MEQ/L
  SODIUM: 143.67 MEQ/L
  TOTAL BILIRUBIN: 0.2 mg/dL
  TOTAL PROTEIN: 5.7 G/DL
  URIC ACID: 1.3 mg/dL
[4]
  ABSOLUTE BASOPHIL: 0 CELLS/uL
  ABSOLUTE EOSINOPHIL: 37.33 CELLS/uL
  ABSOLUTE LYMPHOCYTE: 8871.33 CELLS/uL
  ABSOLUTE MONOCYTE: 96.67 CELLS/uL
  ABSOLUTE SEGMENTED NEUTROPHIL: 1228 CELLS/uL
  BASOPHIL: 0%
  EOSINOPHIL: 0.33%
  ERYTHROCYTE COUNT: 6.24 x10E6/uL
  HEMATOCRIT: 37.73%
  HEMOGLOBIN: 14.83 G/DL
  LEUKOCYTE COUNT: 10.23 x10E3/uL
  LYMPHOCYTE: 86.67%
  MEAN CORPUSCULAR HEMOGLOBIN: 23.77 pg
  MEAN CORPUSCULAR HEMOGLOBIN CONCENTRATION: 39.33 G/DL
  MEAN CORPUSCULAR VOLUME: 60.47 fL
  MONOCYTE: 1%
  NEUTROPHIL: 12%
  NUCLEATED RED BLOOD CELLS: 0 /100WBC
  PLATELET COUNT: 1180.33 x10E3/uL
  ALANINE AMINOTRANSFERASE: 39.67 u/L
  ALBUMIN: 4.13 G/DL
  ALKALINE PHOSPHATASE: 195.33 u/L
  ASPARTATE AMINOTRANSFERASE: 76.33 u/L
  BLOOD UREA NITROGEN: 17.33 mg/dL
  CARBON DIOXIDE: 26.33 mmol/L
  CHLORIDE: 104 MEQ/L
  CHOLESTEROL: 87.67 mg/dL
  CREATINE PHOSPHOKINASE: 160 u/L
  CREATININE: 0.19 mg/dL
  GLUCOSE: 148.67 mg/dL
  LACTATE DEHYDROGENASE: 101 u/L
  LIPASE: 40.67 u/L
  PHOSPHORUS: 9.83 mg/dL
  POTASSIUM: 6.59 MEQ/L
  SODIUM: 145.77 MEQ/L
  TOTAL BILIRUBIN: 0.13 mg/dL
  TOTAL PROTEIN: 6 G/DL
  URIC ACID: 1.17 mg/dL
